Assay results: patent US8785436B2, “1,3-oxazines as BACE 1 and/or BACE2 inhibitors” (Hoffmann-La Roche Inc., priority 2011, dated 2014)

Legend:
[1] = target: T1, BACE1 (Homo sapiens, UniProt P56817); assay: Cellular Aβ-lowering assay a) (Aβ40 ELISA, HEK293 APP cells); format: cell-based; settings: cellular assay a): HEK293 APP695 cells, 18-20 hrs incubation, read-out: BACE1 cell act. Aβ40 IC50
T1 construct: Human HEK293 cells which are stably transfected with a vector expressing a cDNA of the human APP wt gene (APP695); endogenous in cells; host or cells: HEK293 cells stably expressing human APP695 wt
Description: Cellular Aβ-Lowering Assay:
a) Human HEK293 cells which are stably transfected with a vector expressing a cDNA of the human APP wt gene (APP695) were used to assess the potency of the compounds in a cellular assay. The cells were seeded in 96-well microtiter plates in cell culture medium (Iscove, plus 10% (v/v) fetal bovine serum, glutamine, penicillin/streptomycin) to about 80% confluence and the compounds were added at a 10× concentration in 1/10 volume of medium without FCS containing 8% DMSO (final concentration of DMSO was kept at 0.8% v/v). After 18-20 hrs incubation at 37° C. and 5% CO2 in a humidified incubator the culture supernatant was harvested for the determination of Aβ40 concentrations. 96 well ELISA plates (e.g., Nunc MaxiSorb) were coated with monoclonal antibody which specifically recognize the C-terminal end of Aβ40 (Brockhaus et al., NeuroReport 9, 1481-1486; 1998). After blocking of non-specific binding sites with e.g. 1% BSA and washing, the culture supernatants were added in suitable dilutions together with a horseradish peroxidase-coupled Aβ detection antibody (e.g., antibody 4G8, Senetek, Maryland Heights, Mo.) and incubated for 5 to 7 hrs. Subsequently the wells of the microtiter plate were washed extensively with Tris-buffered saline containing 0.05% Tween 20 and the assay was developed with tetramethylbenzidine/H2O2 in citric acid buffer. After stopping the reaction with one volume 1 NH2SO4 the reaction was measured in an ELISA reader at 450 nm wavelength. The concentrations of Aβ in the culture supernatants were calculated from a standard curve obtained with known amounts of pure Aβ peptide.

[2] = target: T2, BACE2 (Rattus norvegicus, UniProt Q6IE75); assay: BACE inhibition by measuring cellular TMEM27 cleavage (INS-TMEM27 cells, ELISA); format: cell-based; settings: INS-TMEM27 (Ins1e rat) cells, shed human TMEM27 by ELISA; read-out: BACE2 cell act. IC50
T2 construct: endogenous cellular BACE2 in the Ins1e rat cell line; endogenous in cells; host or cells: INS-TMEM27 (INS1e-derived rat cell line with TetOn-inducible full-length hTMEM27)
T2 sequence (Q6IE75 63-514): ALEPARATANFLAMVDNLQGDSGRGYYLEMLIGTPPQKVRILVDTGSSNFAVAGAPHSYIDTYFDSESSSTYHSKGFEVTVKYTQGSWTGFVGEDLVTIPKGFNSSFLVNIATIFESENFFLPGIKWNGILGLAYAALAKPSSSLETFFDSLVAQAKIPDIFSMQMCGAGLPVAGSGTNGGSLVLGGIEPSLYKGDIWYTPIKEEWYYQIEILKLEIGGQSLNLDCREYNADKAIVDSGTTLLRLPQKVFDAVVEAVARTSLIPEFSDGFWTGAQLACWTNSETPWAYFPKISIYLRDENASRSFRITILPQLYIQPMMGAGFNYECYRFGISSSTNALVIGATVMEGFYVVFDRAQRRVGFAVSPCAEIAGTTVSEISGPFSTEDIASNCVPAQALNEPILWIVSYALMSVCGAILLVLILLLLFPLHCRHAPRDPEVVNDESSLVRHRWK
Description: Assay for BACE Inhibition by Measuring Cellular TMEM27 Cleavage:
The assay uses the principle of inhibition of human TMEM27 cleavage by endogenous cellular BACE2 in the Ins1e rat cell line and shedding from the cell surface into the culture medium, followed by detection in an ELISA assay Inhibition of BACE2 prevents the cleavage and shedding in a dose-dependent manner.
The stable cell line “INS-TMEM27” represents an INS1e-derived cell line with inducible expression (using the TetOn system) of full-length hTMEM27 in a doxycycline-dependent manner. The cells are cultured throughout the experiment in RPMI1640+Glutamax (Invitrogen) Penicillin/Streptomycin, 10% Fetal bovine serum, […], […], 100 micrograms/ml G418 and 100 microgram/ml hygromycin and are grown inadherent culture at 37° C. in a standard CO2 cell culture incubator.
INS-TMEM27 cells are seeded in 96-well plates. After 2 days in culture, BACE2 inhibitor is added in a range of concentrations as required by the assay and after a further two hours, doxycycline is added to a final concentration of 500 ng/ml. The cells are incubated for a further 46 hours and the supernatant harvested for detection of shed TMEM27.
An ELISA assay (using a pair of mouse anti-human-TMEM27 antibodies, raised against the extracellular domain of TMEM27) is used for detection of TMEM27 in the culture medium. An EC50 for BACE2 inhibition is calculated using the ELISA readout for each inhibitor concentration with standard curve-fitting software such as XLFit for the Excel spreadsheet program.

T1 sequence (P56817 46-501): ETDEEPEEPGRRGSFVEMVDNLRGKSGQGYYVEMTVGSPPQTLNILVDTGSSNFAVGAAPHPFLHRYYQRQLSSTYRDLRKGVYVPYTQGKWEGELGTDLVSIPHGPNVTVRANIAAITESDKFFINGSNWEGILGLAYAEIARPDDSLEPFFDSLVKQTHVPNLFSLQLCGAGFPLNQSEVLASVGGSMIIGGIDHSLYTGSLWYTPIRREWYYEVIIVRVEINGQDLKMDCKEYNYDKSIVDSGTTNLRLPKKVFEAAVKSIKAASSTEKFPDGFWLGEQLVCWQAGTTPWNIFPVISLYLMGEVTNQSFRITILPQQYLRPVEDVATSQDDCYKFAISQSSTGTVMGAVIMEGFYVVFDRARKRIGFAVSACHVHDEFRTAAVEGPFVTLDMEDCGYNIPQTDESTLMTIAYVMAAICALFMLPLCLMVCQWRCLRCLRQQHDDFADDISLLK

IC50 [1] | IC50 [2] | Structure (SMILES)
39 nM | 588 nM | C[C@]1(F)COC(N)=N[C@]1(C)c1cc(NCc2nn(C(F)F)cc2Cl)ccc1F [Example 12, (4R,5R)-4-{5-[(4-Chloro-1-difluoromethyl-1H-pyrazol-3-ylmethyl)-amino]-2-fluoro-phenyl}-5-fluoro-4,5-dimethyl-5,6-dihydro-4H-[1,3]oxazin-2-ylamine]
22 nM | 164 nM | C[C@]1(c2cc(NCC3CC3)ccc2F)N=C(N)OC[C@@H]1F [Example 8, (4R,5R)-4-[5-(Cyclopropylmethyl-amino)-2-fluoro-phenyl]-5-fluoro-4-methyl-5,6-dihydro-4H-[1,3]oxazin-2-ylamine]
310 nM | 1650 nM | C[C@]1(c2cc(NCC3CC3)ccc2F)N=C(N)OCC1(F)F [Example 25, (R)-4-[5-(Cyclopropylmethyl-amino)-2-fluoro-phenyl]-5,5-difluoro-4-methyl-5,6-dihydro-4H-[1,3]oxazin-2-ylamine]
 | 68 nM | Cc1nc(C(C)Nc2ccc(F)c([C@@]3(C)N=C(N)OC[C@]3(C)F)c2)c(C(F)(F)F)o1 (mixture of isomers) [Example 14, (4R,5R)-5-Fluoro-4-{2-fluoro-5-[(RS)-1-(2-methyl-5-trifluoromethyl-oxazol-4-yl)-ethylamino]-phenyl}-4,5-dimethyl-5,6-dihydro-4H-[1,3]oxazin-2-ylamine]
290 nM | 1420 nM | CC1(C)OC(N)=N[C@](C)(c2cc(NC3CCCC3)ccc2F)C1(F)F [Example 48, (R)-4-(5-Cyclopentylamino-2-fluoro-phenyl)-5,5-difluoro-4,6,6-trimethyl-5,6-dihydro-4H-[1,3]oxazin-2-ylamine]
113 nM | 2520 nM | C[C@]1(c2cc(NCc3nn(C(F)F)cc3Cl)ccc2F)N=C(N)OCC1(F)F [Example 16, (R)-4-{5-[(4-Chloro-1-difluoromethyl-1H-pyrazol-3-ylmethyl)-amino]-2-fluoro-phenyl}-5,5-difluoro-4-methyl-5,6-dihydro-4H-[1,3]oxazin-2-ylamine]
13 nM | 180 nM | C[C@@]1(c2cc(NCc3nn(C(F)F)cc3Cl)ccc2F)CCOC(N)=N1 [Example 1, (S)-4-{5-[(4-Chloro-1-difluoromethyl-1H-pyrazol-3-ylmethyl)-amino]-2-fluoro-phenyl}-4-methyl-5,6-dihydro-4H-[1,3]oxazin-2-ylamine]
310 nM | 970 nM | COc1ccccc1Nc1ccc(F)c([C@@]2(C)N=C(N)OC[C@@H]2F)c1 [Example 3, (4R,5R)-5-Fluoro-4-[2-fluoro-5-(2-methoxy-phenylamino)-phenyl]-4-methyl-5,6-dihydro-4H-[1,3]oxazin-2-ylamine]
540 nM | 1130 nM | C[C@]1(c2cc(NCc3cccs3)ccc2F)N=C(N)OC[C@@H]1F [Example 5, (4R,5R)-5-Fluoro-4-{2-fluoro-5-[(thiophen-2-ylmethyl)-amino]-phenyl}-4-methyl-5,6-dihydro-4H-[1,3]oxazin-2-ylamine]
1650 nM | 4140 nM | CC1(C)OC(N)=N[C@](C)(c2cc(Nc3ccccc3C#N)ccc2F)C1(F)F [Example 43, 2-[3-((R)-2-Amino-5,5-difluoro-4,6,6-trimethyl-5,6-dihydro-4H-[1,3]oxazin-4-yl)-4-fluoro-phenylamino]-benzonitrile]
370 nM | 1810 nM | C[C@]1(c2cc(Nc3ccccc3OC(F)F)ccc2F)N=C(N)OC[C@@H]1F [Example 4, (4R,5R)-4-[5-(2-Difluoromethoxy-phenylamino)-2-fluoro-phenyl]-5-fluoro-4-methyl-5,6-dihydro-4H-[1,3]oxazin-2-ylamine]
11 nM | 753 nM | C[C@]1(c2cc(NC3CCc4cc(C#N)cnc43)ccc2F)N=C(N)OCC1(F)F (mixture of isomers) [Example 22, (RS)-7-[3-((R)-2-Amino-5,5-difluoro-4-methyl-5,6-dihydro-4H-[1,3]oxazin-4-yl)-4-fluoro-phenylamino]-6,7-dihydro-5H-[1]pyrindine-3-carbonitrile]
48 nM | 79 nM | Cn1cc(Cl)c(CNc2ccc(F)c([C@@]3(C)N=C(N)OC[C@]3(C)F)c2)n1 [Example 13, (4R,5R)-4-{5-[(4-Chloro-1-methyl-1H-pyrazol-3-ylmethyl)-amino]-2-fluoro-phenyl}-5-fluoro-4,5-dimethyl-5,6-dihydro-4H-[1,3]oxazin-2-ylamine]
780 nM | 240 nM | C[C@]1(c2cc(NCc3ccccc3F)ccc2F)N=C(N)OC[C@@H]1F [Example 7, (4R,5R)-5-Fluoro-4-[2-fluoro-5-(2-fluoro-benzylamino)-phenyl]-4-methyl-5,6-dihydro-4H-[1,3]oxazin-2-ylamine]
73 nM | 1700 nM | C[C@]1(c2cc(NC3CCc4cc(Cl)cnc43)ccc2F)N=C(N)OCC1(F)F (mixture of isomers) [Example 23, [3-((R)-2-Amino-5,5-difluoro-4-methyl-5,6-dihydro-4H-[1,3]oxazin-4-yl)-4-fluoro-phenyl]-((RS)-3-chloro-6,7-dihydro-5H-[1]pyrindin-7-yl)-amine]
2090 nM | 2980 nM | COc1ccccc1Nc1ccc(F)c([C@@]2(C)N=C(N)OC(C)(C)C2(F)F)c1 [Example 44, (R)-5,5-Difluoro-4-[2-fluoro-5-(2-methoxy-phenylamino)-phenyl]-4,6,6-trimethyl-5,6-dihydro-4H-[1,3]oxazin-2-ylamine]
14500 nM | 3350 nM | CC1(C)OC(N)=N[C@](C)(c2cc(-c3cc(Cl)cc(Cl)c3)ccc2F)C1(F)F [Example 51, (R)-4-(3′,5′-Dichloro-4-fluoro-biphenyl-3-yl)-5,5-difluoro-4,6,6-trimethyl-5,6-dihydro-4H-[1,3]oxazin-2-ylamine]
6020 nM | 10900 nM | Cc1ccc(Cc2cc3cc(F)c([C@@]4(C)N=C(N)OCC4(F)F)cc3[nH]2)cc1 [Example 40, (R)-5,5-Difluoro-4-[5-fluoro-2-(4-methyl-benzyl)-3H-indol-6-yl]-4-methyl-5,6-dihydro-4H-[1,3]oxazin-2-ylamine]
